Among the data in ChEMBL document CHEMBL3994634, “Synthesis of new chromeno-carbamodithioate derivatives and preliminary evaluation of their antioxidant activity and molecular docking studies” (Bioorg Med Chem Lett, 2017) are Activity and IC50 values, retold here.

Assay [1] in a line: Antioxidant activity assessed as […] radical scavenging activity by spectrophotometric method relative to control. Format: functional. More on the design: concentration or dose not given beside the values.
Assay [2] is described as follows: Antioxidant activity assessed as inhibition of […] radical by spectrophotometric method. The format is functional.

pIC50: −log10 of the molar value.

As for `COc1ccccc1N1CCN(C(=S)SCC(O)COc2ccc3c(=O)c(C)c(C)oc3c2)CC1` (stereo not given), in assay [1], the Activity came to 31.6%. Also, the pIC50 in assay [2] was 2.80.
For the compound `Cc1oc2cc(OCC(O)CSC(=S)N3CCC(Cc4ccccc4)CC3)ccc2c(=O)c1C` (stereo not given), the Activity in assay [1] came out at 31.8%. In addition, the pIC50 in assay [2] is 2.80.
For `O=C1O[C@H]([C@@H](O)CO)C(O)=C1O` [ASCORBIC ACID], in that order: 30.4% and 2.78.
Take `Cc1oc2cc(OCC(O)CSC(=S)N3CCOCC3)ccc2c(=O)c1C` (stereo not given): the Activity in assay [1] amounted to 35.6%. Further, in assay [2], the pIC50 is 2.85.
As for `Cc1oc2cc(OCC(O)CSC(=S)N3CCN(Cc4ccc5c(c4)OCO5)CC3)ccc2c(=O)c1C` (stereo not given), in assay [1], the Activity turned out to be 36.8%. The pIC50 in assay [2] is 2.86.
In the case of `Cc1oc2cc(OCC(O)CSC(=S)N3CCN(C)CC3)ccc2c(=O)c1C` (stereo not given), in assay [1], the Activity stood at 29.4%. The pIC50 in assay [2] was 2.76.
The like results for `Cc1oc2cc(OCC(O)CSC(=S)N3CCN(C(c4ccccc4)c4ccccc4)CC3)ccc2c(=O)c1C` (stereo not given) were, in that order, 30.9% and 2.79.
Regarding `CCN(CC)C(=S)SCC(O)COc1ccc2c(=O)c(C)c(C)oc2c1` (stereo not given), the Activity in assay [1] was found to be 29.5%. Further, the negative-log IC50 (pIC50) in assay [2] was 2.77.
For `Cc1oc2cc(OCC(O)CSC(=S)N3CCN(c4ccccc4)CC3)ccc2c(=O)c1C` (stereo not given), the Activity in assay [1] was 24.8%. In assay [2], the pIC50 is 2.65.
With `Cc1oc2cc(OCC(O)CSC(=S)N3CCN(c4ccc(F)cc4)CC3)ccc2c(=O)c1C` (stereo not given), in assay [1], the Activity turned out to be 24.8%. Further, the pIC50 in assay [2] was 2.69.
